Experiment [1] has as its target T1, Hexokinase HKDC1 (Homo sapiens, UniProt Q2TB90).
T1 sequence (Q2TB90 whole entry): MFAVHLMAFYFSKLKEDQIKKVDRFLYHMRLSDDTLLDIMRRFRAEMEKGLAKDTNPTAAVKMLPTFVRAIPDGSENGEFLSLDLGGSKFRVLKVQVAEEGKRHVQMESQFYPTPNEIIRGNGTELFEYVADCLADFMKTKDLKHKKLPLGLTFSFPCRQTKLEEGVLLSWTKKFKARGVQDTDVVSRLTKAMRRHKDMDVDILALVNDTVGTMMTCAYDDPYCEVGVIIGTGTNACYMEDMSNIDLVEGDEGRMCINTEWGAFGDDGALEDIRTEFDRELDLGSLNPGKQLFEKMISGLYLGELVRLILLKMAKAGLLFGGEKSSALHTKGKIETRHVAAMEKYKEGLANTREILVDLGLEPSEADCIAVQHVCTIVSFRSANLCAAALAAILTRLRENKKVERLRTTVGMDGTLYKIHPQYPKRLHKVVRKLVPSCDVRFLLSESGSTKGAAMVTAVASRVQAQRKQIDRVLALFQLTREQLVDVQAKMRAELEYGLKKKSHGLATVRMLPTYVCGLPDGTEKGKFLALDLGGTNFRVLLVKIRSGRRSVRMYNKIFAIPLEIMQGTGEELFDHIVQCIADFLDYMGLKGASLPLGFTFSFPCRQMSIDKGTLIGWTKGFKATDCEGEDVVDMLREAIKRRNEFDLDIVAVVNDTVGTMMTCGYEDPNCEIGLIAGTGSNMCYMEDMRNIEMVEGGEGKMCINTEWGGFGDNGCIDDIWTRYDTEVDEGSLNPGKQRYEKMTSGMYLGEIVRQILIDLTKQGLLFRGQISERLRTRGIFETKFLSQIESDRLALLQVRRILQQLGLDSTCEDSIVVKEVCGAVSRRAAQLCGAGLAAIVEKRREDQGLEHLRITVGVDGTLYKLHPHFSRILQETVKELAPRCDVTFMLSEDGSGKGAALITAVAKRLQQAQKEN
Put plainly: activation of HKDC1 glucose phosphorylation – biochemical, W721R variant, dose response (AID 504730). The experiment is classed as functional.

The target of experiment [2] is T2, Hexokinase-1 (Homo sapiens, UniProt P19367).
T2 sequence (P19367 whole entry): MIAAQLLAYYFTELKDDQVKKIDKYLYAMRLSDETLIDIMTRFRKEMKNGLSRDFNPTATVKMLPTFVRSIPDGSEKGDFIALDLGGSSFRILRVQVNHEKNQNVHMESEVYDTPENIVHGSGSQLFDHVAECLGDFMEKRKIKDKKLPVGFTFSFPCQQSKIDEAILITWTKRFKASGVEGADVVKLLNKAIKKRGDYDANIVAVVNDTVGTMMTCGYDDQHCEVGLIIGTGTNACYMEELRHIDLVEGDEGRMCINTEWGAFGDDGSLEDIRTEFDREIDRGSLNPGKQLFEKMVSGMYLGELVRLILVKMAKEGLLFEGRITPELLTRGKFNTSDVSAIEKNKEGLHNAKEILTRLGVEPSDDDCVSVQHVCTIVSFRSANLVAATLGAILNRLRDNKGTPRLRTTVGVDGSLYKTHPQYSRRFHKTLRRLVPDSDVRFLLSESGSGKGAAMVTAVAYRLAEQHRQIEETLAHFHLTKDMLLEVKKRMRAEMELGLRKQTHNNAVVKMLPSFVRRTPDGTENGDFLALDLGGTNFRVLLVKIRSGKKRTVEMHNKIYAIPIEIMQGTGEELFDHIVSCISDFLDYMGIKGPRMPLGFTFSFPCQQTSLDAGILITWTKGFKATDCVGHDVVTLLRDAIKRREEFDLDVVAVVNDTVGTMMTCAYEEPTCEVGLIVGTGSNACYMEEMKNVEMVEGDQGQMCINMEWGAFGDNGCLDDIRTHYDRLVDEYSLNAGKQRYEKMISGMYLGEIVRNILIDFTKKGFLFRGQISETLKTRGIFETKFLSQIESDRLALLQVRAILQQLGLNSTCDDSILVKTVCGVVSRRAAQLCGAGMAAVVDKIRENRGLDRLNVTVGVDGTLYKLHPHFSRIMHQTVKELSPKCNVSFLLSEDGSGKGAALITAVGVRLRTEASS
Put plainly: HK1 enzyme activation by HKDC1 hits – biochemical, selectivity assay for HKDC1 activator project, dose response (AID 504762). The experiment is classed as functional.

Experiment [3] concerns the target DNA damage-inducible transcript 3 protein (Mus musculus, UniProt P35639). Type of experiment: functional, Cricetulus griseus.
Experiment [4] concerns the target T3, Cannabinoid receptor 2 (Homo sapiens, UniProt P34972). Put plainly: SAR analysis of agonists of the Cannabinoid Receptor 2 using an Image-Based Assay - Set 2. [Related pubchem assays (depositor defined):AID1961, AID1965]. Type of experiment: functional.
For experiment [5], the target named is T4, G-protein coupled receptor 55 (Homo sapiens, UniProt Q9Y2T6). Put plainly: SAR analysis of selective Agonists of GPR55 using an Image-Based Assay - Set 2. [Related pubchem assays (depositor defined):AID1961, AID1965]. The experiment is classed as functional.
Experiment [6] concerns the target T5, Cannabinoid receptor 1 (Homo sapiens, UniProt P21554). Put plainly: SAR analysis of agonists of the Cannabinoid Receptor 1 using an Image-Based Assay - Set 3. [Related pubchem assays (depositor defined):AID1961, AID1965]. The experiment is classed as functional.
Experiment [7] deals with T6, G-protein coupled receptor 35 (Homo sapiens, UniProt Q9HC97). Put plainly: SAR analysis of Antagonists of the GPR35 Receptor using an Image-Based Assay - Set 4. [Related pubchem assays (depositor defined):[…]]. The experiment is classed as functional.
For experiment [8], the target named is T6, G-protein coupled receptor 35. Put plainly: SAR analysis of Agonists of the GPR35 Receptor using an Image-Based Assay - Set 3. [Related pubchem assays (depositor defined):AID1961, AID1965]. The experiment is classed as functional.
Experiment [9] has as its target T3, Cannabinoid receptor 2. Put plainly: SAR analysis of antagonists of the Cannabinoid Receptor 2 using an Image-Based Assay - Set 2. [Related pubchem assays (depositor defined):AID1961, AID1965]. The experiment is classed as functional.
Experiment [10] addresses T5, Cannabinoid receptor 1. Put plainly: SAR analysis of antagonists of the Cannabinoid Receptor 1 using an Image-Based Assay - Set 3. [Related pubchem assays (depositor defined):AID1961, AID1965]. Type of experiment: functional.
For experiment [11], the target named is T7, Heat shock factor protein 1 (Mus musculus, UniProt P38532).
T7 sequence (P38532 whole entry): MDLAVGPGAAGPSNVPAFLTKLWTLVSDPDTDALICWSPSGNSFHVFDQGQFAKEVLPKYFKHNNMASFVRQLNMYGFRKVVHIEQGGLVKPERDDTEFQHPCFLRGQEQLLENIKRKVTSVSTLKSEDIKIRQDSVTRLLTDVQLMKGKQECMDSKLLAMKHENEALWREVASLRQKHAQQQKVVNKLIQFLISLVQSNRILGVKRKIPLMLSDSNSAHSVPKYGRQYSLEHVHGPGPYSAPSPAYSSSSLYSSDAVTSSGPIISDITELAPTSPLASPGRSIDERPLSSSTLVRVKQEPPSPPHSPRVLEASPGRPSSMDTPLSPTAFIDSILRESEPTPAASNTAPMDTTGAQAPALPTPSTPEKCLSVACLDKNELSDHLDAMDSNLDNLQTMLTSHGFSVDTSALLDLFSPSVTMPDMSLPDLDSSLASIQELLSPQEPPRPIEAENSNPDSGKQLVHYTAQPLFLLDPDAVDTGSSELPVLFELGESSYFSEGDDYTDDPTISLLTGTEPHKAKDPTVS
Put plainly: enhancement of HSF1-driven luciferase signal – cell-based, NIH3T3, luminescence, dose retest, confirmation (AID 435004).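 Also: stress induced by proteasome inhibitor MG132 added 30 min after compound; luciferase reporter driven by HSF1 response element in NIH3T3 cells; actives raise luminescence as potentiators of the MG132 stress response.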 Type of experiment: functional.

The target in experiment [12] is T8, Voltage-gated N-type calcium channel alpha-1B subunit/Amyloid beta A4 precursor protein-binding family A member 1 (Homo sapiens, UniProt Q00975+Q02410). Type of experiment: protein assay.
Experiment [13] has as its target T9, Runt-related transcription factor 1/Core-binding factor subunit beta (Homo sapiens, UniProt Q01196+Q13951). Put plainly: disruptors of Runt domain/CBFb-SMMHC interaction – biochemical, FRET, Cerulean-Runt, Venus-CBFb-SMMHC, uHTS, […] (AID 1434). Type of experiment: protein assay.
In experiment [14] the target is T8, Voltage-gated N-type calcium channel alpha-1B subunit/Amyloid beta A4 precursor protein-binding family A member 1. The experiment is classed as protein assay. The source holds these as a separate data set.
The target in experiment [15] is T9, Runt-related transcription factor 1/Core-binding factor subunit beta. Put plainly: Runt domain/CBFb-SMMHC interaction disruptors – biochemical, TR-FRET (AID 1438). The experiment is classed as protein assay.
For experiment [16], the target named is Cytochrome P450 2C9 (Homo sapiens, UniProt P11712).
Experiment [17] has as its target T10, Cytochrome P450 1A2 (Homo sapiens, UniProt P05177).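 Also: PubChem cytochrome P450 panel assay, CYP1A2 panel member.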
T10 sequence (P05177 whole entry): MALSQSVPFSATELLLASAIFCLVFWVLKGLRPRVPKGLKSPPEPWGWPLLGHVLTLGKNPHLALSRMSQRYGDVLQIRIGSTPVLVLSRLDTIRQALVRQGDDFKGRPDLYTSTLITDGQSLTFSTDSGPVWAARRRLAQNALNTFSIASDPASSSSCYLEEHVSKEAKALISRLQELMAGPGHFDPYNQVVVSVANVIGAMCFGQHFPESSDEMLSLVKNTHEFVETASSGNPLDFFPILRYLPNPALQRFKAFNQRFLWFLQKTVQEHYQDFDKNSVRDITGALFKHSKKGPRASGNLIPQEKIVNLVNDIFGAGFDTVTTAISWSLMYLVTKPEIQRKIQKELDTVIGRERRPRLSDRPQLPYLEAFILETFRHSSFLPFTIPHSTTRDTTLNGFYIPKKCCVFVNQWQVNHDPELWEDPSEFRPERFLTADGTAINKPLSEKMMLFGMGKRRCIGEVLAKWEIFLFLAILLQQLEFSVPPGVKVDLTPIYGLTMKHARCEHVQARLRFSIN

Experiment [18] concerns the target Troponin, cardiac muscle (Homo sapiens, UniProt P19429+P45379+P63316). Put plainly: Fluorescence-based biochemical high throughput dose response assay for activators of the calcium sensitivity of cardiac Regulated Thin Filaments (RTF). [Related pubchem assays (depositor defined):AID493008, AID493018, AID504382, AID504383]. The experiment is classed as protein-complex assay.

Experiment [19] deals with T6, G-protein coupled receptor 35. Put plainly: SAR analysis of Agonists of the GPR35 Receptor using an Image-Based Assay - Set 4. [Related pubchem assays (depositor defined):AID2013, AID2026]. Type of experiment: functional.
Experiment [20] concerns the target T3, Cannabinoid receptor 2. Put plainly: SAR analysis of agonists of the Cannabinoid Receptor 2 using an Image-Based Assay - Set 3. [Related pubchem assays (depositor defined):AID2013, AID2026]. The experiment is classed as functional.
Experiment [21] addresses T3, Cannabinoid receptor 2. Put plainly: SAR analysis of antagonists of the Cannabinoid Receptor 2 using an Image-Based Assay - Set 3. [Related pubchem assays (depositor defined):AID2013, AID2026]. Type of experiment: functional.
The target of experiment [22] is T5, Cannabinoid receptor 1. Put plainly: SAR analysis of agonists of the Cannabinoid Receptor 1 using an Image-Based Assay - Set 4. [Related pubchem assays (depositor defined):AID2013, AID2026]. Type of experiment: functional.
Experiment [23] concerns the target T4, G-protein coupled receptor 55. Put plainly: SAR Analysis of Selective Antagonists of GPR55 using an Image-Based Assay - Set 4. [Related pubchem assays (depositor defined):AID2013, AID2026]. Type of experiment: functional.
Experiment [24] addresses T5, Cannabinoid receptor 1. Put plainly: SAR analysis of antagonists of the Cannabinoid Receptor 1 using an Image-Based Assay - Set 4. [Related pubchem assays (depositor defined):AID2013, AID2026]. The experiment is classed as functional.
The target of experiment [25] is T6, G-protein coupled receptor 35. Put plainly: SAR analysis of Antagonists of the GPR35 Receptor using an Image-Based Assay - Set 6. [Related pubchem assays (depositor defined):AID2013, AID2026]. Type of experiment: functional.

The source made the active and inactive calls.

What is called EC50 is the concentration that produces a half-maximal response. On to `CCOC(=O)c1c(C)[nH]c(C2=NN=C(Nc3ccccc3OC)SC2)c1C`, for which the results for the EC50 in experiment [1] and in experiment [2] were 15 µM (active) and 15.3 µM (active), respectively.
On to `COc1ccc(/C=C/C(=O)NC(=S)NNC(=O)c2cccnc2)cc1`, for which the “Absolute IC50 (CHOP)” value in experiment [3] worked out at 10 µM.
One may read the IC50 as the concentration that inhibits the measured activity by half. With `COc1ccc(S(=O)(=O)N2CCOCC2)cc1NC(=O)c1cc2c(s1)CCCCCC2`, the EC50 is > 32 µM (inactive) in experiment [4], 17.7 µM (inactive) in [5], > 32 µM (inactive) in experiment [6] and > 32 µM (inactive) in [8]. Besides, the IC50 in [7] is > 32 µM (inactive); in experiment [9] it was > 32 µM (inactive); in experiment [10], 18.2 µM (inactive).
Consider `Cc1cc(C)cc(-n2c3nc4ccccc4nc3c3c(=O)n(Cc4ccco4)cnc32)c1`, for which the EC50 in [11] was > 260 µM (inactive). The IC50 was 1.28 µM (active) in experiment [12], > 100 µM (inactive) in experiment [13], 4.14 µM (active) in [14] and 34 µM (active) in experiment [15].
One may read the AC50 as the midpoint of the concentration-response curve, whichever way the signal moves. Regarding `Cc1cc2nc(C3CCCN(C(=O)NCc4ccccc4)C3)[nH]c2cc1C` (stereo not given), the AC50 in experiment [16] is 22.4 µM (inconclusive); in experiment [17] it was 25.1 µM (inconclusive). Further, in experiment [18], the EC50 was > 71.6 µM (inactive).
On to `N=c1c(C(=O)NCc2ccco2)cc2c(=O)n3ccccc3nc2n1C1CCCC1`, for which the EC50 is > 32 µM (inactive) in experiment [19], 2.13 µM (active) in experiment [20] and > 32 µM (inactive) in experiment [22]. Moreover, the IC50 is > 32 µM (inactive) in experiment [21], 28.3 µM (inactive) in experiment [23], 31.5 µM (inactive) in experiment [24] and > 32 µM (inactive) in experiment [25].
